According to patent US20060264455A1 (priority 2005, published 2006):

Columns and labels:
[1] = tested on: subcutaneous Metrazol (pentylenetetrazol) seizures; assay: Subcutaneous Metrazol (SCMET / scPTZ) model, rats
From the text: The Subcutaneous Metrazole (SCMET) model is also an art-recognized test for therapeutic agents for epilepsy, and in particular, is useful for investigating petite mal seizures.

[2] = tested on: minimal motor impairment (ataxia, abnormal gait and stance); assay: Toxicity (TOX) / minimal motor impairment, rats; settings: oral, 1 mg/kg

Structure (SMILES): C/C=C1\[C@H]2C=C(C)C[C@]1(N)c1ccc(=O)[nH]c1C2 [Huperzine A]
- Time of peak anticonvulsant activity ([1]; after p.o. administration of 1 mg/kg, test not given): one-hour
- Maximum protection ([1]; p.o., doses tested 1, 2 and 4 mg/kg, at a non-toxic dose of 1 mg/kg, test not given): 62.5%
- N/F, SCMET time course ([1]; rats, oral, 1 mg/kg, 0.25 h): 0/4
- N/F, SCMET time course ([1]; rats, oral, 1 mg/kg, 0.5 h): 2/4
- N/F, SCMET time course ([1]; rats, oral, 1 mg/kg, 1.0 h): 2/4
- N/F, SCMET time course ([1]; rats, oral, 1 mg/kg, 2.0 h): 1/4
- N/F, SCMET time course ([1]; rats, oral, 1 mg/kg, 4.0 h): 1/4
- N/F, SCMET time course ([1]; rats, oral, 1 mg/kg, 6.0 h): 0/4
- Time of peak activity post administration ([1]; rats, oral, 1 mg/kg, MES and SCMET models): between 30 minutes and two hours
- Maximum Protection Observed ([1]; scPTZ, Rat, 2 mg/kg, p.o., time of test ½ h): 62.5%
- Toxicity [2]: no toxicity in any of the animals
